Molecules are shown by their SMILES. Like-named read-outs stand apart in the source and are kept apart here.

In this test the test system is caudate lesioned mouse. Nature of the test: caudate lesioned mouse test (anti-parkinson activity). In kind it is in vivo. Conditions: for responders at 26 µmol/kg / responders at 52 µmol/kg: Mus musculus; for responders at 26 µmol/kg: dose 0.026 m. mole/kg; for responders at 52 µmol/kg: dose 0.052 m. mole/kg. In short, it runs like this:
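Mice with unilateral caudate lesions, recovered ≥14 days, kept only if circling toward lesion in all three periods after apomorphine 1.7 mg/kg i.p. Test drugs given in 1% gum tragacanth; doses as mg/kg free base.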

Where [1] appears, read: 0.5 h, 1/2 h post-drug, read-out: No. Mice Affected/No. Mice Tested, 1/2 h (converted).
Where [2] appears, read: 1 h post-drug, read-out: No. Mice Affected/No. Mice Tested, 1 h (converted).
[3] abbreviates: 4 h post-drug, read-out: No. Mice Affected/No. Mice Tested, 4 h (converted).
Where [4] appears, read: 6 h post-drug, read-out: No. Mice Affected/No. Mice Tested, 6 h (converted).
Where [5] appears, read: 24 h post-drug, read-out: No. Mice Affected/No. Mice Tested, 24 h.
Setting [6] is: total, read-out: No. Mice Affected/No. Mice Tested, Total (converted).

For `CCCN1CCc2cccc3c2C1Cc1ccc(OC(=O)C(C)C)c(OC(=O)C(C)C)c1-3` (stereo not shown) [Ex. 1B, N-Propylnorapomorphine diisobutyrate], the responders at 26 µmol/kg is 0% under setting [1]; 25% under setting [2]; 50% under setting [3]; 50% under setting [4]; 0% under setting [5]; 50% under setting [6]. Besides, the responders at 52 µmol/kg runs as follows: under setting [1], 33.3%; under setting [2], 33.3%; under setting [3], 33.3%; under setting [4], 0%; under setting [5], 0%; under setting [6], 33.3%. The “Molar Potency Ratio Claimed/Ref. Ester” value (claimed N-propyl ester vs corresponding N-methyl reference ester) was at least 8.

The values are drawn from patent US4126616A, “N-propylnorapomorphine diesters” (Hinshaw; William B., priority 1976, dated 1978).
